The first assay has as its system IL-1β release from THP-1 cells. Nature of the assay: IL-1β Release Assay (Alternate Method), THP-1 cells. Type of assay: cell-based, human. The note with it: Homo sapiens; at 0.3 μM; THP-1 cells; read-out: IL-1β % inhibition. The essentials:
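IL-1β release, measured by ELISA, follows 45 min BzATP (250 uM final) stimulation of THP-1 cells given 30 min compound pretreatment. Cells were first primed 16 h with LPS and IFN-γ (100 ng/mL each), then 2 h with fresh LPS; inhibition expressed in percent after background correction.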
For `COCC(O)CN1CCc2c(ncnc2NC(=O)CC23CC4CC(CC(C4)C2)C3)C1` (stereo not shown) [Compound 13, 2-adamantan-1-yl-N-[7-(2-hydroxy-3-methoxy-propyl)-5,6,7,8-tetrahydro-pyrido[3,4-d]pyrimidin-4-yl]-acetamide], the inhibition – broadly, the relative decrease from the control value, in per cent – at 0.3 µM lay within 0 to 25%.

Staying with this assay, now noted: at 0.3 μM; THP-1 cells.
On to `O=C(CC12CC3CC(CC(C3)C1)C2)Nc1ncnc2c1CCN(Cc1ccc3cc[nH]c3c1)C2` [Compound 332], for which the IL-1β % inhibition entry is “+++ (compound exhibited 50-75% inhibition at 0.3 μM)”.
On the same count and under the same terms, the value for `O=C(CC12CC3CC(CC(C3)C1)C2)Nc1ncnc2c1CCN(S(=O)(=O)Cc1cc(C(F)(F)F)cc(C(F)(F)F)c1)C2` [Compound 182] was “+++ (compound exhibited 50-75% inhibition at 0.3 μM)”; that for `CC12CC3CC(C)(C1)CC(CC(=O)Nc1ncnc4c1CCN(S(=O)(=O)Cc1ccc(Cl)cc1)C4)(C3)C2` [Compound 379] was “+++ (compound exhibited 50-75% inhibition at 0.3 μM)”; that for `O=C(CC12CC3CC(CC(C3)C1)C2)Nc1ncnc2c1CCN(C(=O)c1ccc(C(F)(F)F)cc1)C2` [Compound 243] was “+++ (compound exhibited 50-75% inhibition at 0.3 μM)”.
The same measure, in the same setting: the entry for `O=C(c1ccc(F)c(F)c1)N1CCc2c(ncnc2NC(=O)C23CC4CC(CC(C4)C2)C3)C1` [Compound 405] is “++ (compound exhibited 25-50% inhibition at 0.3 μM)”.
On the same count and under the same terms, the entry for `CC(=O)Nc1ccc(CN2CCc3c(ncnc3NC(=O)CC34CC5CC(CC(C5)C3)C4)C2)cc1` [Compound 62] is “+++ (compound exhibited 50-75% inhibition at 0.3 μM)”; for `COc1ccc(C(=O)N2CCc3c(ncnc3NC(=O)CC34CC5CC(CC(C5)C3)C4)C2)cc1` [Compound 234] it is “++ (compound exhibited 25-50% inhibition at 0.3 μM)”; for `Cc1cccc(CN2CCc3c(ncnc3NC(=O)CC34CC5CC(CC(C5)C3)C4)C2)c1` [Compound 38] it is “+ (compound exhibited 0-25% inhibition at 0.3 μM)”.
In the case of `O=C(CC12CC3CC(CC(C3)C1)C2)Nc1ncnc2c1CCN(Cc1ccc(OC(F)F)cc1)C2` [Compound 78], the IL-1β % inhibition result was “+ (compound exhibited 0-25% inhibition at 0.3 μM)”.
Still for that read-out and setting: the value for `Cc1ccc(S(=O)(=O)N2CCc3c(ncnc3NC(=O)CC34CC5CC(CC(C5)C3)C4)C2)cc1` [Compound 144] was “+++ (compound exhibited 50-75% inhibition at 0.3 μM)”; that for `O=C(CC12CC3CC(CC(C3)C1)C2)Nc1ncnc2c1CCN(C(=O)c1ccc(F)c(F)c1)C2` [Compound 232] was “+++ (compound exhibited 50-75% inhibition at 0.3 μM)”; that for `O=C(CC12CC3CC(CC(C3)C1)C2)Nc1ncnc2c1CCN(Cc1ccc3c(c1)OCCCO3)C2` [Compound 333] was “+++ (compound exhibited 50-75% inhibition at 0.3 μM)”.
`COc1cccc(CC(=O)N2CCc3c(ncnc3NC(=O)CC34CC5CC(CC(C5)C3)C4)C2)c1` [Compound 261]: the IL-1β % inhibition entry is “+ (compound exhibited 0-25% inhibition at 0.3 μM)”.
Same read-out and setting: the value for `O=C(CC12CC3CC(CC(C3)C1)C2)Nc1ncnc2c1CCN(C(=O)c1ccc(Cl)cc1Cl)C2` [Compound 258] was “++++ (compound exhibited 75% or greater inhibition at 0.3 μM)”; that for `O=C(CC12CC3CC(CC(C3)C1)C2)Nc1ncnc2c1CCN(C(=O)c1c(F)cccc1F)C2` [Compound 247] was “++++ (compound exhibited 75% or greater inhibition at 0.3 μM)”.
Still for that read-out and setting: the entry for `O=C(CC12CC3CC(CC(C3)C1)C2)Nc1ncnc2c1CCN(S(=O)(=O)c1ccc(F)cc1)C2` [Compound 152] is “+ (compound exhibited 0-25% inhibition at 0.3 μM)”; for `CC12CC3CC(C)(C1)CC(CC(=O)Nc1ncnc4c1CCN(C(=O)c1ccc(Cl)c(Cl)c1)C4)(C3)C2` [Compound 385] it is “+ (compound exhibited 0-25% inhibition at 0.3 μM)”; for `CC(C)(C(=O)Nc1ncnc2c1CCN(Cc1ccc3cc[nH]c3c1)C2)C12CC3CC(CC(C3)C1)C2` [Compound 351] it is “+ (compound exhibited 0-25% inhibition at 0.3 μM)”.
Turning to `CCC(=O)N1CCc2c(ncnc2NC(=O)CC23CC4CC(CC(C4)C2)C3)C1` [Compound 223], the IL-1β % inhibition result is “+ (compound exhibited 0-25% inhibition at 0.3 μM)”.
On the same count and under the same terms, the entry for `COc1ccc(CN2CCc3c(ncnc3NC(=O)CC34CC5CC(CC(C5)C3)C4)C2)c(F)c1` [Compound 95] is “++++ (compound exhibited 75% or greater inhibition at 0.3 μM)”; for `COc1cccc(CN2CCc3c(ncnc3C(=O)NCC34CC5CC(CC(C5)C3)C4)C2)c1` [Compound 335] it is “++ (compound exhibited 25-50% inhibition at 0.3 μM)”.
Still for that read-out and setting: the value for `CC12CC3CC(C)(C1)CC(C(C)(C)C(=O)Nc1ncnc4c1CCN(Cc1ccccc1)C4)(C3)C2` [Compound 343] was “+ (compound exhibited 0-25% inhibition at 0.3 μM)”; that for `O=C(CC12CC3CC(CC(C3)C1)C2)Nc1ncnc2c1CCN(Cc1cccnc1)C2` [Compound 16] was “+ (compound exhibited 0-25% inhibition at 0.3 μM)”.
Turning to `CC(C)CC(=O)N1CCc2c(ncnc2NC(=O)CC23CC4CC(CC(C4)C2)C3)C1` [Compound 255], the IL-1β % inhibition entry is “++ (compound exhibited 25-50% inhibition at 0.3 μM)”.
The same measure, in the same setting: the value for `O=C(CC12CC3CC(CC(C3)C1)C2)Nc1ncnc2c1CCN(Cc1ccc(Cl)c(C(F)(F)F)c1)C2` [Compound 325] was “+ (compound exhibited 0-25% inhibition at 0.3 μM)”; that for `Cc1ccc(CN2CCc3c(ncnc3NC(=O)CC34CC5CC(CC(C5)C3)C4)C2)s1` [Compound 66] was “+ (compound exhibited 0-25% inhibition at 0.3 μM)”; that for `O=C(NCC1CCCCC1)c1ncnc2c1CCN(Cc1ccncc1)C2` [Compound 49] was “+ (compound exhibited 0-25% inhibition at 0.3 μM)”.
Same read-out and setting: the value for `O=C(NCC1CCCCC1)c1ncnc2c1CCN(Cc1ccccn1)C2` [Compound 52] was “+ (compound exhibited 0-25% inhibition at 0.3 μM)”; that for `CC(C)(C(=O)Nc1ncnc2c1CCN(Cc1ccc(F)cc1)C2)C12CC3CC(CC(C3)C1)C2` [Compound 352] was “+ (compound exhibited 0-25% inhibition at 0.3 μM)”; that for `CCc1ccc(C(=O)N2CCc3c(ncnc3NC(=O)C34CC5CC(CC(C5)C3)C4)C2)cc1` [Compound 402] was “+ (compound exhibited 0-25% inhibition at 0.3 μM)”.
On the same count and under the same terms, the entry for `O=C(CC1CCCCCC1)Nc1ncnc2c1CCN(Cc1cccnc1)C2` [Compound 93] is “+ (compound exhibited 0-25% inhibition at 0.3 μM)”.
As for `Cc1ccc(C)c(CN2CCc3c(ncnc3NC(=O)CC34CC5CC(CC(C5)C3)C4)C2)c1` [Compound 32], the IL-1β % inhibition entry is “+ (compound exhibited 0-25% inhibition at 0.3 μM)”.
Consider `CC12CC3CC(C)(C1)CC(CC(=O)Nc1ncnc4c1CCN(S(=O)(=O)c1cccc(F)c1F)C4)(C3)C2` [Compound 381], for which the IL-1β % inhibition entry is listed as “+ (compound exhibited 0-25% inhibition at 0.3 μM)”.

Staying with this assay, now noted: at 0.3 μM; THP-1 cells, BzATP-stimulated.
As to `O=C(Nc1ncnc2c1CCN(Cc1ccc3c(c1)OCO3)C2)C12CC3CC(CC(C3)C1)C2` [Compound 564], the IL-1β % inhibition entry is reported as “++++ (compound exhibited 75% or greater inhibition at 0.3 μM)”.
Still for that read-out and setting: the entry for `O=C(Nc1ncnc2c1CCN(Cc1ccc(Cl)cc1F)C2)C12CC3CC(CC(C3)C1)C2` [Compound 635] is “+ (compound exhibited 0-25% inhibition at 0.3 μM)”.
Still for that read-out and setting: the value for `O=C(Nc1ncnc2c1CCN(S(=O)(=O)c1ccc(Cl)cc1F)C2)C12CC3CC(CC(C3)C1)C2` [Compound 536] was “++ (compound exhibited 25-50% inhibition at 0.3 μM)”.
The same measure, in the same setting: the value for `COc1ccc(OC)c(S(=O)(=O)N2CCc3c(ncnc3NC(=O)C34CC5CC(CC(C5)C3)C4)C2)c1` [Compound 549] was “++ (compound exhibited 25-50% inhibition at 0.3 μM)”; that for `O=C(c1ccccc1Cl)N1CCc2c(ncnc2NC(=O)C23CC4CC(CC(C4)C2)C3)C1` [Compound 464] was “++ (compound exhibited 25-50% inhibition at 0.3 μM)”; that for `O=C(c1ccno1)N1CCc2c(ncnc2NC(=O)C23CC4CC(CC(C4)C2)C3)C1` [Compound 466] was “+ (compound exhibited 0-25% inhibition at 0.3 μM)”.
As for `CCCCCN1CCc2c(ncnc2NC(=O)C23CC4CC(CC(C4)C2)C3)C1` [Compound 558], the IL-1β % inhibition result is recorded as “++ (compound exhibited 25-50% inhibition at 0.3 μM)”.
The same measure, in the same setting: the entry for `O=C(Nc1ncnc2c1CCN(Cc1ccc(OCc3ccc(F)cc3)cc1)C2)C12CC3CC(CC(C3)C1)C2` [Compound 622] is “++ (compound exhibited 25-50% inhibition at 0.3 μM)”; for `O=C(Nc1ncnc2c1CCN(Cc1cccc(F)c1)C2)C12CC3CC(CC(C3)C1)C2` [Compound 605] it is “+ (compound exhibited 0-25% inhibition at 0.3 μM)”; for `COc1ccc(OC)c(CN2CCc3c(ncnc3NC(=O)C34CC5CC(CC(C5)C3)C4)C2)c1` [Compound 631] it is “+ (compound exhibited 0-25% inhibition at 0.3 μM)”.
Still for that read-out and setting: the value for `O=C(COc1ccccc1)N1CCc2c(ncnc2NC(=O)C23CC4CC(CC(C4)C2)C3)C1` [Compound 421] was “+ (compound exhibited 0-25% inhibition at 0.3 μM)”; that for `O=C(COCc1ccccc1)N1CCc2c(ncnc2NC(=O)C23CC4CC(CC(C4)C2)C3)C1` [Compound 428] was “+ (compound exhibited 0-25% inhibition at 0.3 μM)”; that for `O=C(Nc1ncnc2c1CCN(Cc1ccc3c(c1)OC(F)(F)O3)C2)C12CC3CC(CC(C3)C1)C2` [Compound 627] was “++++ (compound exhibited 75% or greater inhibition at 0.3 μM)”.
On to `Cc1nn(C)c(C)c1S(=O)(=O)N1CCc2c(ncnc2NC(=O)C23CC4CC(CC(C4)C2)C3)C1` [Compound 531], for which the IL-1β % inhibition entry is given as “++ (compound exhibited 25-50% inhibition at 0.3 μM)”.
Still for that read-out and setting: the entry for `COc1ccc(S(=O)(=O)N2CCc3c(ncnc3NC(=O)C34CC5CC(CC(C5)C3)C4)C2)cc1OC` [Compound 489] is “+++ (compound exhibited 50-75% inhibition at 0.3 μM)”.

For the origin of these results see patent US7297700B2, “Bicycloheteroaryl compounds as P2X7 modulators and uses thereof” (Renovis, Inc., priority 2005, dated 2007).
